This is an account of results in patent US8901118B2, “Compounds and methods for kinase modulation, and indications therefor” (Plexxikon Inc., priority 2010, dated 2014).

The target in test [1] is T1, BCR-NTRK3 BaF3 cells (Homo sapiens, UniProt Q16288).
T1 construct: fused on or other part: P11274 (Breakpoint cluster region protein)
Kind of test: BaF3 BCR-NTRK3 cell proliferation assay (ATPlite). As to conditions: read-out: Inhibition of Cell Proliferation IC50, BCR/BaF3 TrkC. It counts as cell-based. On the procedure:
Compounds are assessed in a variety of cell based assays. For example BaF3 cells engineered with any of BCR-FMS, BCR-KIT, BCR-FLT3, BCR-NTRK1, BCR-NTRK2, and BCR-NTRK3, are used in cell proliferation assays to assess inhibitory activity of Fms, Kit, Flt-3, TrkA, TrkB, and TrkC, respectively. An MV-4-11 (leukemia) cell proliferation assay is used to assess inhibitory activity in Flt-3, and SKNSH (human neuroblastoma) cell proliferation assay is used to assess efficacy of Fms/Trk inhibitors. Additional cells may be assayed similarly to assess the efficacy of Fms/Trk inhibitors, such as MiaPaCa (human pancreatic cancer) and Capan-1 (human pancreatic carcinoma) cells. Reagent and assay conditions are as follows: • BaF3 cells: • Maintained in RPMI containing 10% FBS, 1% PenStrep, 1% NEAA, and 1% L-Glutamine, supplemented with 1 mg/mL G418 and 5% WEHI-CM (or recombinant murine IL-3). • Confluent cells are split 1:50 to 1:100 every 3-4 days. • MV-4-11 cells: • Maintained in Iscove's Modified Dulbecco's Medium containing 10% FBS. • Confluent cells are split 1:4 every 3-4 days. • SKNSH cells: RPMI containing 10% FBS. On day 1, cells are counted, then centrifuged in a conical tube for 5 minutes at 1000 rpm. The supernatant is removed and cells are re-suspended as follows: • BaF3: resuspend in growth media +1 mg/mL G418 (without WEHFIL-3) to 2×10^5 cells/mL. • MV-4-11: resuspend in growth media to 5×10^5 cells/mL. • SKNSH: resuspend in growth media to 2×10^4 cells/mL. The cells are plated (50 μL, 150 μL for SKNSH cells) in each well of a 96-well dish (Corning 3610) and incubated at 37° C. in 5% CO2 overnight, cells plated to a final concentration of cells as follows: • BaF3: 10,000 cells per well. • MV-4-11: 25,000 cells per well. • SKNSH: 3,000 cells per well. On day 2, compound at a maximum concentration of 5 mM is serially diluted 1:3 for a total of 8 point titration with DMSO as a control. A 1 μL aliquot of each dilution point is added to 249 μL growth media and 50 μL is added to a well containing cells, providing 10 μM compound for the maximum concentration point. The cells are incubated for 3 days at 37° C. in 5% CO2. For SKNSH cells, a 0.75 μL aliquot of appropriate dilution in DMSO is added to 150 μL of cells. On day 5, ATPlite 1 step Luminescence Assay System (Perkin Elmer #6016739) is brought to room temperature along with the cell cultures. ATPlite is added to each well as follows: • BaF3: 25 μL per well. • MV-4-11: 40 μL per well. • SKNSH: 20 μL per well. The cells are incubated at room temperature for 10 minutes, then luminescence is read on Safire reader. The measured luminescence correlates directly with cell number, such that the reading as a function of compound concentration is used to determine the IC50 value.
It is understood that the results of these assays may vary as assay conditions are varied. Inhibition levels determined under the conditions described herein represent a relative activity for the compounds tested under the specific conditions employed. The cell based assays are likely to show variability due to the complexity of the system and the sensitivity thereof to any changes in the assay conditions. […] Results for compounds that are tested and show substantially no inhibition below the highest tested concentration are represented as “-” in the tables below. In some instances, the compounds were not tested in all of the assays, or assay results were not valid, as indicated by NA in the tables below.

Test [2] addresses TrkA kinase (Homo sapiens, UniProt P04629). Briefly: TrkA kinase biochemical activity assay (AlphaScreen). As to conditions: 100 μM ATP; read-out: Biochemical Inhibition IC50 TrkA. The method, then: In one assay the biochemical activity IC50 values are determined with respect to inhibition of TrkA kinase activity, where inhibition of phosphorylation of a peptide substrate is measured as a function of compound concentration. Compounds to be tested, dissolved in DMSO (1 μL), are added to a white 384-well plate (Costar #3705). Working stocks of TrkA kinase (UBI), biotin-(E4Y)10 substrate (Upstate Biotech, Cat#12-440), and ATP (Sigma, Cat#A-3377) are prepared in 25 mM Hepes pH 7.5, 10 mM MnCl2, 1 mM DTT, 0.01% BSA, and 0.01% Tween-20. All components are added to the 384-well plate for a final concentration of 1 ng/well TrkA, 30 nM biotin-(E4Y)10 and 100 μM ATP in a volume of 20 μL. Each sample is at 5% DMSO. The plate is shaken for 1 minute at 1200 rpm, spun for 1 minute at 1000 rpm, then incubated for 40 minutes at room temperature. Just before use, working stocks of donor and acceptor beads from the AlphaScreen PY20 Detection Kit (PerkinElmer, Cat#676601M) are prepared in 25 mM Hepes pH 7.5, 100 mM EDTA. 0.01% BSA. Donor Beads solution (Streptavidin beads) is added (5 μL) to each well to final bead concentration of 10 μg/mL. The plate is incubated at room temperature for 20 minutes. Acceptor Beads solution (PY20 coated beads) are then added to each well (5 μL) to a final concentration of bead at 10 μg/mL. The plates are incubated at room temperature for 60 minutes. Fluorescence signal is recorded on the Envision reader. Phosphorylated substrate results in binding of the PY20 antibody and association of the donor and acceptor beads such that signal correlates with kinase activity. The signal vs. compound concentration is used to determine the IC50. Similar assays are used for TrkB and Trk C kinase.

T1 sequence (Q16288 whole entry, the tested form may be a part): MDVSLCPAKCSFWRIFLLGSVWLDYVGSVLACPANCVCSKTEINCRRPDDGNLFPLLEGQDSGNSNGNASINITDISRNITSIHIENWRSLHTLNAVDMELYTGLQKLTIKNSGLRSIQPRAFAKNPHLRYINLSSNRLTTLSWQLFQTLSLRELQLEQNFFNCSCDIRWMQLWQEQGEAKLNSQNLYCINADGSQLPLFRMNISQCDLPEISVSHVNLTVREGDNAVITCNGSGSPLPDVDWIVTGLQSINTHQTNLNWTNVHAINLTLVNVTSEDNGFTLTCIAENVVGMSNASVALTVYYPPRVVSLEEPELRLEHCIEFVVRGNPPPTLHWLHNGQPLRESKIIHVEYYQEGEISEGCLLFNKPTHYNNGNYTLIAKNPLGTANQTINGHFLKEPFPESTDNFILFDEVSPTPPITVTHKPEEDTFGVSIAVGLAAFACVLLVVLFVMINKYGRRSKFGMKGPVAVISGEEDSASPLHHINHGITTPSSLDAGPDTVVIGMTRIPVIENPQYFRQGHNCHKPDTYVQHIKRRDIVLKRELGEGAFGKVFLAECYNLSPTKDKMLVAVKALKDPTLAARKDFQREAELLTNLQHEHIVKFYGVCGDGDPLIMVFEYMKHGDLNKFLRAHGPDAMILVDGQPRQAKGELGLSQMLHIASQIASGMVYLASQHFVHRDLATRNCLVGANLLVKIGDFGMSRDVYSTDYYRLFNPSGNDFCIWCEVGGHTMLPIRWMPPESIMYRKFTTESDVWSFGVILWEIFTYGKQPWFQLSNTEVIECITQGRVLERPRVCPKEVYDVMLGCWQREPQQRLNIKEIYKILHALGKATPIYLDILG
Chain of TrkA kinase (P04629 33-796): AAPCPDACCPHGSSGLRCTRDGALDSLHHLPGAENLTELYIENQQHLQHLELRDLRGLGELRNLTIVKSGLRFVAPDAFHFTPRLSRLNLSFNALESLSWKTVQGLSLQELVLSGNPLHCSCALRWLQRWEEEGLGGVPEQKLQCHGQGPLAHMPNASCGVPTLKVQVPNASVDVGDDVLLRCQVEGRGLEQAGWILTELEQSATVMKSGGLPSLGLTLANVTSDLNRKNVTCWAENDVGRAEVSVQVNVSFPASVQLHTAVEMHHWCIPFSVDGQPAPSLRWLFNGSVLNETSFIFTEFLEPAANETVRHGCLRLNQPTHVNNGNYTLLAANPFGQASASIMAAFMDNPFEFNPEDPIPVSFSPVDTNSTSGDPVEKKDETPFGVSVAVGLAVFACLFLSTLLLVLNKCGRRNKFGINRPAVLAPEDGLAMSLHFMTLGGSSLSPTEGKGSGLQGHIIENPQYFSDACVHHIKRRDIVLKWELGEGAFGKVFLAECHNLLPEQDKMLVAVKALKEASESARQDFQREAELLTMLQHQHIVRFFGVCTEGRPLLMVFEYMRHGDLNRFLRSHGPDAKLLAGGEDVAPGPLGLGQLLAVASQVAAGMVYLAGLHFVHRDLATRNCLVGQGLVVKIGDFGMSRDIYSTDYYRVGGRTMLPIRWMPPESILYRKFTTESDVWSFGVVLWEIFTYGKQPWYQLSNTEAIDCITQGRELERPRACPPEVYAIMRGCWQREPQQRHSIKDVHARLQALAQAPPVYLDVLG

As to `CCc1ccc(Nc2ccc(C(=O)c3c[nH]c4ncnc(N)c34)c(F)n2)cn1` [Compound P-4065, (4-amino-7H-pyrrolo[2,3-d]pyrimidin-5-yl)-[6-[(6-ethyl-3-pyridyl)amino]-2-fluoro-3-pyridyl]methanone], the IC50 in test [1] and in test [2] was < 10 nM in each case.

Take `CCc1ccc(Nc2ccc(C(=O)c3c[nH]c4ncnc(NC(C)C)c34)c(F)n2)cn1` [Compound P-4117, [6-[(6-ethyl-3-pyridyl)amino]-2-fluoro-3-pyridyl]-[4-(isopropylamino)-7H-pyrrolo[2,3-d]pyrimidin-5-yl]methanone]: the IC50 in test [1] and in test [2] was < 10 nM in each case.

On to `CCCCNc1ncnc2[nH]cc(C(=O)c3ccc(Nc4ccc(OC)nc4)nc3F)c12` [Compound P-4080, [4-(butylamino)-7H-pyrrolo[2,3-d]pyrimidin-5-yl]-[2-fluoro-6-[(6-methoxy-3-pyridyl)amino]-3-pyridyl]methanone], for which the IC50 in test [1] and in test [2] was < 10 nM in each case.

As to `CNc1ncnc2[nH]cc(C(=O)c3ccc(NC4CCC(F)(F)CC4)nc3F)c12` [Compound P-4063, [6-[(4,4-difluorocyclohexyl)amino]-2-fluoro-3-pyridyl]-[4-(methylamino)-7H-pyrrolo[2,3-d]pyrimidin-5-yl]methanone], the IC50 in test [1] and in test [2] was < 10 nM in each case.

Turning to `CCCNc1ncnc2[nH]cc(C(=O)c3ccc(Nc4ccc(OC)nc4)nc3F)c12` [Compound P-4068, [2-fluoro-6-[(6-methoxy-3-pyridyl)amino]-3-pyridyl]-[4-(propylamino)-7H-pyrrolo[2,3-d]pyrimidin-5-yl]methanone], the IC50 in test [1] and in test [2] was < 10 nM in each case.

With `O=C(c1ccc(NC2CCC(F)(F)CC2)nc1Cl)c1c[nH]c2ncnc(NCC(F)(F)F)c12` [Compound P-4057, [2-chloro-6-[(4,4-difluorocyclohexyl)amino]-3-pyridyl]-[4-(2,2,2-trifluoroethylamino)-7H-pyrrolo[2,3-d]pyrimidin-5-yl]methanone], the IC50 in test [1] and in test [2] was < 1000 nM in each case.

As for `COCCCNc1ncnc2[nH]cc(C(=O)c3ccc(Nc4ccc(OC)nc4)nc3F)c12` [Compound P-4079, [2-fluoro-6-[(6-methoxy-3-pyridyl)amino]-3-pyridyl]-[4-(3-methoxypropylamino)-7H-pyrrolo[2,3-d]pyrimidin-5-yl]methanone], the IC50 in test [1] and in test [2] was < 10 nM each time.

For `COc1ccc(Nc2ccc(C(=O)c3c[nH]c4ncnc(NC5CC5)c34)c(F)n2)cn1` [Compound P-4126, [4-(cyclopropylamino)-7H-pyrrolo[2,3-d]pyrimidin-5-yl]-[2-fluoro-6-[(6-methoxy-3-pyridyl)amino]-3-pyridyl]methanone], the IC50 in test [1] and in test [2] was < 10 nM in each case.

On to `CCc1ccc(Nc2ccc(C(=O)c3c[nH]c4ncnc(NC5CCOCC5)c34)c(F)n2)cn1` [Compound P-4116, [6-[(6-ethyl-3-pyridyl)amino]-2-fluoro-3-pyridyl]-[4-(tetrahydropyran-4-ylamino)-7H-pyrrolo[2,3-d]pyrimidin-5-yl]methanone], for which the IC50 in test [1] and in test [2] was < 10 nM throughout.

Regarding `Cc1ccc(Nc2ccc(C(=O)c3c[nH]c4ncnc(NC5CCCCC5)c34)c(F)n2)cn1` [Compound P-4111, [4-(cyclohexylamino)-7H-pyrrolo[2,3-d]pyrimidin-5-yl]-[2-fluoro-6-[(6-methyl-3-pyridyl)amino]-3-pyridyl]methanone], the IC50 in test [1] was < 10 nM; in test [2], < 100 nM.

Regarding `COc1ccc(Nc2ccc(C(=O)c3c[nH]c4ncnc(NC(C)C)c34)c(F)n2)cn1` [Compound P-4066, [2-fluoro-6-[(6-methoxy-3-pyridyl)amino]-3-pyridyl]-[4-(isopropylamino)-7H-pyrrolo[2,3-d]pyrimidin-5-yl]methanone], the IC50 in test [1] and in test [2] was < 10 nM each time.
